Reference: US5670498A, “8-substituted styryl xanthine derivatives” (Kyowa Hakko Kogyo Co., Ltd., priority 1992, dated 1997)
Like-named read-outs stand apart in the source and are kept apart here.

What was measured:
[1] = Acute Toxicity Test (minimum lethal dose, po); type: in vivo; conditions: mice, 7 days after administration
Method: Test compounds were orally administered to groups of dd-strain male mice weighing 20±1 g, each group consisting of three mice (po; 300 mg/kg). Seven days after the administration, minimum lethal dose (MLD) of each compound was determined by observing the mortality.
Therefore, these compounds can be safely used in a wide range of doses.

[2] = target: T1, adenosine A2 receptor (Rattus norvegicus, UniProt P30543); experiment: Adenosine A2 Receptor Binding Test (3H-NECA + CPA, rat corpus striatum); conditions: for inhibition at 1 µM: 10^-6 M
T1 construct: from tissue; host or cells: rat corpus striatum (washed membrane suspension)
Method: Corpus striatum of a rat was suspended in ice-cooled 50 mM Tris hydroxymethyl aminomethane hydrochloride (Tris HCl) buffer (pH 7.7) by using Polytron homogenizer (manufactured by […] Co.). The suspension was centrifuged (50,000×g, 10 minutes), and the precipitate was suspended again in the same amount of 50 mM Tris HCl buffer. The suspension was centrifuged under the same conditions, and the final precipitate was suspended once again in 50 mM Tris HCl buffer containing 10 mM magnesium chloride and 0.02 unit/mg tissue of adenosine deaminase (manufactured by Sigma Co.) to give a tissue concentration of 5 mg (wet weight)/ml. […] The resulting mixture was allowed to stand at 25° C. for 120 minutes and then rapidly filtered by suction through a glass fiber filter (GF/C, manufactured by Whatman Co.). […] The radioactivity on the filter was determined with a liquid scintillation counter (manufactured by Packard instrument Co.). […] The Ki values shown in the table were calculated by the following equation: [formula]

[3] = test system: Haloperidol-Induced Catalepsy; experiment: Effect on Haloperidol-Induced Catalepsy; type: in vivo, male ddY mice; conditions: 10 mg/kg po; for Total Score (catalepsy): sum of five mice, 25 points at the full, control 25; for inhibition in vivo at 10 mg/kg: Mus musculus, decrease in total score based on control group, read-out: Remission Rate
Method: Effect on Haloperidol-Induced Catalepsy Parkinson's disease is a clinical syndrome caused by degeneration of nigrostriatal dopaminergic neurons. […] The experiment was performed by using several groups of 5-weeks-old male ddY mice (weighing 22 to 24 g, Japan SLC), each group consisting of 5 mice. Haloperidol (Janssen Pharmaceutica) suspended in 0.3% CMC was intraperitoneally administered to each mouse at a dose of 1.0 mg/kg. Test compounds were suspended in injectable distilled water (Otsuka Pharmaceutical Co., Ltd.) containing Tween 80 [polyoxyethylene (20) sorbitan monooleate]. L-DOPA (Kyowa Hakko Kogyo Co., Ltd.) and benserazide hydrochloride (Kyowa Hakko Kogyo Co., Ltd.) were suspended in 0.3% CMC. One hour after the haloperidol administration, the test compound suspensions and the control suspension [injectable distilled water (Otsuka Pharmaceutical Co., Ltd.) containing Tween 80] containing no test compound were orally administered to separate groups of the mice (0.1 ml per 10 g of body weight). One hour after the administration of the test compound, the forelimbs of each mouse and subsequently the hindlimbs of the same mouse were placed on a 4.5 cm-high, 1.0 cm-wide bar and catalepsy was estimated. […] The catalepsy score and the standard of judgment are shown below. […] The effect of the compounds was evaluated by the total of the catalepsy scores of five mice in each group (25 points at the full).

[4] = target: T1, adenosine A2 receptor; experiment: Adenosine A2 Receptor Binding Test (3H-CGS 21680, rat corpus striatum); conditions: [3H]CGS 21680, read-out: A2 Receptor Inhibition Rate; for inhibition at 1 µM: 10^-6 M; for inhibition at 0.1 µM: 10^-7 M
Method: Adenosine Receptor Antagonistic Activity (Adenosine A2 Receptor Binding Test)
Corpus striatum of a rat was suspended in ice-cooled 50 mM Tris hydroxymethyl aminomethane hydrochloride (Tris HCl) buffer (pH 7.7) by using Polytron homogenizer (manufactured by Kinematicas Co.). The suspension was centrifuged (50,000×g, 10 minutes), and the precipitate was suspended again in the same amount of 50 mM Tris HCl buffer. The suspension was centrifuged under the same conditions, and the final precipitate was suspended once again in 50 mM Tris HCl buffer containing 10 mM magnesium chloride and 0.02 unit/mg tissue of adenosine deaminase (manufactured by Sigma Co.) to give a tissue concentration of 5 mg (wet weight)/ml.
To 1 ml of the tissue suspension thus prepared were added 50 μl of a mixture of N-ethylcarboxamidoadenosine labeled with tritium (^3 H-NECA: 26 Ci/mmol, manufactured by Amersham Co.) (final concentration: 3.8 nM) and cyclopentyladenosine (CPA, manufactured by Sigma Co.) (final concentration: 50 nM), and 50 μl of a test compound. The resulting mixture was allowed to stand at 25° C. for 120 minutes and then rapidly filtered by suction through a glass fiber filter (GF/C, manufactured by Whatman Co.). The filter was immediately washed three times with 5 ml each of ice-cooled 50 mM Tris HCl buffer, and transferred to a vial, and a scintillator (EX-H by Wako Pure Chemical Industries, Ltd.) was added thereto. The radioactivity on the filter was determined with a liquid scintillation counter (manufactured by Packard instrument Co.).
The similar procedure as above was repeated to determine the radioactivity bound to the A2 receptors using 50 μl of CGS 21680 labeled with tritium {^3 H-2-[p-(2-carboxyethyl)phenethylamino]-5'-(N-ethylcarboxamide)adenosine: 40 Ci/mmol, manufactured by New England Nuclear Co. [J. Pharmacol. Exp. Ther., 251, 888 (1989)]} (final concentration: 4.0 nM) in place of 50 μl of the mixture of N-ethylcarboxamidoadenosine labeled with tritium (^3 H-NECA: 26 Ci/mmol, manufactured by Amersham Co.) (final concentration: 3.8 nM) and cyclopentyladenosine (CPA, manufactured by Sigma Co.) (final concentration: 50 nM).
The inhibition rate of the test compound against the binding of A2 receptors (^3 H-CGS 21680 binding) was calculated by the following equation: [formula]

[5] = read-out: A2 Receptor Inhibition Rate
[6] = 10^-4 M, 3H-NECA, read-out: A2 Receptor Inhibition Rate
[7] = 10^-5 M, 3H-NECA, read-out: A2 Receptor Inhibition Rate
[8] = 3H-NECA, read-out: A2 Receptor Inhibition Rate

T1 sequence (P30543 whole entry): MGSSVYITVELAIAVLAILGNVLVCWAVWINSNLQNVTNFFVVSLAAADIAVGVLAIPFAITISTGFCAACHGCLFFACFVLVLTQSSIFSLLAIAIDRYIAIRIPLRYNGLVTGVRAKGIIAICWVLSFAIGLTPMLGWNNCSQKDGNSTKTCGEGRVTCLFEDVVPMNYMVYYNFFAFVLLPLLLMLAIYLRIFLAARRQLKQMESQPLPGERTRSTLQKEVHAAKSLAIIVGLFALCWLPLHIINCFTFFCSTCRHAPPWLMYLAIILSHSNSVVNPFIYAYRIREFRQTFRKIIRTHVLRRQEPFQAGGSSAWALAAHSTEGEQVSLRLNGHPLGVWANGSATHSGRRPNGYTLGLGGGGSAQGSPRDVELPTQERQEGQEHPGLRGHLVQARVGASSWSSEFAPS

| SMILES | inhibition at 100 µM [2, 6] [%] | inhibition at 10 µM [2, 7] [%] | Total Score (catalepsy) [3] | inhibition in vivo at 10 mg/kg [3] [%] | inhibition at 1 µM [4] [%] | inhibition at 0.1 µM [4] [%] | other results |
| --- | --- | --- | --- | --- | --- | --- | --- |
| CCCn1c(=O)c2c(nc(/C=C/c3cc(OC)c(OC)cc3S(=O)(=O)O)n2C)n(CCC)c1=O [Compound 1, (E)-4,5-Dimethoxy-β-(7-methyl-1,3-dipropylxanthin-8-yl)styrene-2-sulfonic acid] | – | – | – | – | – | – | MLD (minimum lethal dose) [1]: > 300 mg/kg; Ki ([2]; 3H-NECA): 670 nM; inhibition at 10 µM [2, 5]: 80%; inhibition at 100 µM [2, 5]: 95% |
| CCCn1c(=O)c2c(nc(/C=C/c3cc(OC)c(OC)cc3S(=O)(=O)N(CC)CC)n2C)n(CCC)c1=O [Compound 2, (E)-N,N-Diethyl-4,5-dimethoxy-β-(7-methyl-1,3-dipropylxanthin-8-yl)styrene-2-sulfonamide] | 112 | 97 | – | – | – | – | – |
| CCCN(CCC)S(=O)(=O)c1cc(OC)c(OC)cc1/C=C/c1nc2c(c(=O)n(CCC)c(=O)n2CCC)n1C [Compound 3, (E)-N,N-Dipropyl-4,5-dimethoxy-β-(7-methyl-1,3-dipropylxanthin-8-yl)styrene-2-sulfonamide] | 91 | 92 | 20 | 20 | – | – | – |
| CCCn1c(=O)c2c(nc(/C=C/c3cc(OC)c(OC)cc3S(=O)(=O)N3CCCCC3)n2C)n(CCC)c1=O [Compound 4, (E)-4,5-Dimethoxy-β-(7-methyl-1,3-dipropylxanthin-8-yl)-2-piperidinosulfonylstyrene] | 60 | 74 | 11 | 56 | – | – | – |
| CCCn1c(=O)c2c(nc(/C=C/c3cc(OC)c(OC)cc3S(=O)(=O)N(C)CCN(C)C)n2C)n(CCC)c1=O [Compound 6, (E)-N-[2-(Dimethylamino)ethyl]-N-methyl-4,5-dimethoxy-β-(7-methyl-1,3-dipropylxanthin-8-yl)styrene-2-sulfonamide] | – | – | 19 | 24 | – | – | – |
| CCCn1c(=O)c2c(nc(/C=C/c3ccc(C(=O)OC)cc3)n2C)n(CCC)c1=O [Compound 7, (E)-β-(7-Methyl-1,3-dipropylxanthin-8-yl)styrene-4-carboxylic acid methyl ester] | 92 | 77 | 11 | 56 | – | – | – |
| CCCn1c(=O)c2c(nc(/C=C\c3ccc(C(=O)OC)cc3)n2C)n(CCC)c1=O [Compound 8, (Z)-β-(7-methyl-1,3-dipropylxanthin-8-yl)styrene-4-carboxylic acid methyl ester] | 101 | 92 | – | – | – | – | MLD (minimum lethal dose) [1]: > 300 mg/kg |
| CCCn1c(=O)c2c(nc(/C=C/c3cc(OC)c(OC)cc3S(=O)(=O)Nc3ccccc3)n2C)n(CCC)c1=O [Compound 10, (E)-N-Phenyl-4,5-dimethoxy-β-(7-methyl-1,3-dipropylxanthin-8-yl)styrene-2-sulfonamide] | – | – | 17 | 32 | – | – | – |
| CCCn1c(=O)c2c(nc(/C=C/c3cc(OC)c(OC)c(OC)c3S(=O)(=O)O)n2C)n(CCC)c1=O [Compound 11, (E)-β-(7-Methyl-1,3-dipropylxanthin-8-yl)-3,4,5-trimethoxystyrene-2-sulfonic acid] | 93 | 93 | 19 | 24 | – | – | – |
| CCCn1c(=O)c2c(nc(/C=C/c3cc(OC)c(OC)c(OC)c3S(N)(=O)=O)n2C)n(CCC)c1=O [Compound 12, (E)-β-(7-Methyl-1,3-dipropylxanthin-8-yl)-3,4,5-trimethoxystyrene-2-sulfonamide] | 76 | 68 | 15 | 40 | – | – | – |
| CCCn1c(=O)c2c(nc(/C=C/c3cc(OC)c(OC)c(OC)c3S(=O)(=O)N(C)CCN(C)C)n2C)n(CCC)c1=O [Compound 13, (E)-N-[2-(Dimethylamino)ethyl]-N-methyl-β-(7-methyl-1,3-dipropylxanthin-8-yl)-3,4,5-trimethoxystyrene-2-sulfonamide] | 89 | 69 | – | – | – | – | – |
| CCCn1c(=O)c2c(nc(/C=C/c3cc(C)c(C)cc3S(=O)(=O)O)n2C)n(CCC)c1=O [Compound 15, (E) -4,5-Dimethyl-β-(7-methyl-1,3-dipropylxanthin-8-yl)styrene-2-sulfonicacid] | – | – | – | – | – | – | MLD (minimum lethal dose) [1]: > 300 mg/kg |
| CCCn1c(=O)c2c(nc(/C=C\c3ccc(C(=O)O)cc3)n2C)n(CCC)c1=O [Compound 18, (Z)-β-(7-Methyl-1,3-dipropylxanthin-8-yl)styrene-4-carboxylic acid] | – | – | – | – | – | – | MLD (minimum lethal dose) [1]: > 300 mg/kg; inhibition at 1 µM [2, 8]: 72% |
| CCCn1c(=O)c2c(nc(/C=C/c3ccc(C(=O)O)cc3)n2C)n(CCC)c1=O [Compound 19, (E)-β-(7-Methyl-1,3-dipropylxanthin-8-yl)styrene-4-carboxylic acid] | – | – | – | – | – | – | inhibition at 1 µM [2, 8]: 94%; inhibition at 0.1 µM ([2]; 10^-7 M, 3H-NECA, read-out: A2 Receptor Inhibition Rate): 68% |
| CCn1c(=O)c2c(nc(/C=C/c3ccc(C(=O)OC)cc3OC)n2C)n(CC)c1=O [Compound 20, (E)-β-(1,3-Diethyl-7-methylxanthin-8-yl) -2-methoxystyrene-4-carboxylic acid methyl ester] | – | – | – | – | 88 | 69 | – |
| CCCn1c(=O)c2c(nc(/C=C/c3ccc(C(=O)OC)cc3OC)n2C)n(CCC)c1=O [Compound 21, (E)-2-Methoxy-β-(7-methyl-1,3-dipropylxanthin-8-yl)styrene-4-carboxylic acid methyl ester] | – | – | – | – | 94 | 80 | – |
| CCn1c(=O)c2c(nc(/C=C/c3ccc(C(=O)O)cc3OC)n2C)n(CC)c1=O [Compound 22, (E)-β-(1,3-Diethyl-7-methylxanthin-8-yl)-2-methoxystyrene-4-carboxylicacid] | – | – | – | – | 92 | 60 | – |
| CCCn1c(=O)c2c(nc(/C=C/c3ccc(C(=O)O)cc3OC)n2C)n(CCC)c1=O [Compound 23, (E)-2-Methoxy-β-(7-methyl-1,3-dipropylxanthin-8-yl)styrene-4-carboxylic acid] | – | – | – | – | 95 | 70 | – |
| CCCn1c(=O)c2c(nc(/C=C/c3ccc(OC)c(C(C)=O)c3)n2C)n(CCC)c1=O [Compound 26, (E)-8-(3-Acetyl-4-methoxystyryl)-7-methyl-1,3-dipropylxanthine] | – | – | – | – | 93 | 66 | – |
| CCn1c(=O)c2c(nc(/C=C/c3ccc(F)c(C(C)=O)c3)n2C)n(CC)c1=O [Compound 28, (E)-8-(3-Acetyl-4-fluorostyryl)-1,3-diethyl-7-methylxanthine] | – | – | – | – | 86 | 76 | – |
| CCn1c(=O)c2c(nc(/C=C/c3ccc(C(C)=O)c(OC)c3)n2C)n(CC)c1=O [Compound 30, (E)-8-(4-Acetyl-3-methoxystyryl)-1,3-diethyl-7-methylxanthine] | – | – | – | – | 95 | 83 | – |
| CCCn1c(=O)c2c(nc(/C=C/c3ccc(S(=O)(=O)O)cc3)n2C)n(CCC)c1=O [Compound 31, (E)-β-(7-Methyl-1,3-dipropylxanthin-8-yl)styrene-4-sulfonic acid] | – | – | – | – | 89 | 56 | – |
